# Columns and labels:
# [1] = [M+H]+; instrument: TW; Major Mix IMS/Tof Calibration Kit (Waters)
# [2] = instrument: DT, stepped-field
compound,measurement,setting,value
COc1cc(CCN)c(OC)cc1I [2C-I],collision cross section (N2),[1],157.7 Å²
COc1ccc2[nH]cc(CCN(C)C)c2c1 [5-MeO-DMT],collision cross section (N2),[1],150.3 Å²
CCCCCCCCCCC/C=C\CCCCC(=O)O[C@H](COC(=O)CCCCCCCCCCCCCCCCC)COP(=O)([O-])OCC[N+](C)(C)C [PC(36:01)],collision cross section (N2),[2]; [M+2Na-H]+,292.02 Å²
same,collision cross section (N2),[2]; [M+Cl]-,296.27 Å²
same,collision cross section (N2),[2]; [M+HCOO]-,296.46 Å²
same,collision cross section (N2),[2]; [M+H]+,288.22 Å²
same,collision cross section (N2),[2]; [M+K]+,291.07 Å²
same,collision cross section (N2),[2]; [M+Na]+,290.25 Å²
CCCCCCCC/C=C\C/C=C\CCCCC(=O)O[C@H](COC(=O)CCCCCCC/C=C\CCCCCCCC)COP(=O)([O-])OCC[N+](C)(C)C [PC(36:03)],collision cross section (N2),[2]; [M+2Na-H]+,288.51 Å²
same,collision cross section (N2),[2]; [M+Cl]-,293.42 Å²
same,collision cross section (N2),[2]; [M+HCOO]-,293.56 Å²
same,collision cross section (N2),[2]; [M+Na]+,287.02 Å²
CCCCC/C=C\C/C=C\CCCCCCCCCC(=O)O[C@H](COC(=O)CCCCCCCCCCCCCCCCC)COP(=O)([O-])OCC[N+](C)(C)C [PC(38:02)],collision cross section (N2),[2]; [M+Cl]-,300.55 Å²
CCCCC/C=C\C/C=C\C/C=C\CCCCCCC(=O)O[C@H](COC(=O)CCCCCCC/C=C\CCCCCCCC)COP(=O)([O-])OCC[N+](C)(C)C [PC(38:04)],collision cross section (N2),[2]; [M+Cl]-,298.46 Å²
same,collision cross section (N2),[2]; [M+HCOO]-,298.03 Å²
CCCCC/C=C\C/C=C\C/C=C\C/C=C\CCCC(=O)O[C@H](COC(=O)CCCCCCCCCCCCCCCCCCC)COP(=O)([O-])OCC[N+](C)(C)C [PC(40:04)],collision cross section (N2),[2]; [M+Na]+,297.42 Å²
CC/C=C\C/C=C\C/C=C\CCCCCCCC(=O)O[C@H](COC(=O)CCCCCCCCCCCCCCC)COP(=O)(O)OCCN [PE(34:03)],collision cross section (N2),[2]; [M+2Na-H]+,271.16 Å²
same,collision cross section (N2),[2]; [M+H]+,265.93 Å²
same,collision cross section (N2),[2]; [M+Na]+,271.73 Å²
same,collision cross section (N2),[2]; [M-H]-,263.76 Å²
CCCC/C=C\CCCCCCCC(=O)OC[C@H](COP(=O)(O)OCCN)OC(=O)CCCCCCCCCCCCCCCCCCCC [PE(35:01)],collision cross section (N2),[2]; [M+2Na-H]+,279.57 Å²
same,collision cross section (N2),[2]; [M+Na]+,279.26 Å²
CCCCC/C=C\C/C=C\CCCCCCCCCC(=O)O[C@H](COC(=O)CCCCCCC/C=C\CCCCCC)COP(=O)(O)OCCN [PE(36:03)],collision cross section (N2),[2]; [M+2Na-H]+,279.42 Å²
same,collision cross section (N2),[2]; [M+H]+,273.34 Å²
same,collision cross section (N2),[2]; [M+K]+,278.94 Å²
same,collision cross section (N2),[2]; [M+Na]+,277.57 Å²
same,collision cross section (N2),[2]; [M-H]-,269.84 Å²
CCCCCCCC/C=C\C/C=C\CCCCC(=O)OC[C@H](COP(=O)(O)OCCN)OC(=O)CCCC/C=C\C/C=C\CCCCCCCC [PE(36:04)],collision cross section (N2),[2]; [M+2Na-H]+,277.05 Å²
same,collision cross section (N2),[2]; [M+K]+,277.24 Å²
same,collision cross section (N2),[2]; [M-H]-,269.7 Å²
CCCCC/C=C\C/C=C\C/C=C\CCCCCCC(=O)O[C@H](COC(=O)CCCCCCC/C=C\C/C=C\CCCCC)COP(=O)(O)OCCN [PE(38:05)],collision cross section (N2),[2]; [M+2Na-H]+,283.55 Å²
same,collision cross section (N2),[2]; [M+K]+,282.77 Å²
same,collision cross section (N2),[2]; [M-H]-,274.82 Å²
CCCCC/C=C\C/C=C\C/C=C\C/C=C\CCCCCC(=O)O[C@H](COC(=O)CCCCCCC/C=C\C/C=C\CCCCC)COP(=O)(O)OCCN [PE(40:06)],collision cross section (N2),[2]; [M+2Na-H]+,287.86 Å²
same,collision cross section (N2),[2]; [M-H]-,280.5 Å²
CCCCC/C=C\C/C=C\C/C=C\C/C=C\CCCCCC(=O)O[C@H](COC(=O)CCC/C=C\C/C=C\C/C=C\C/C=C\CCCCC)COP(=O)(O)OCCN [PE(42:08)],collision cross section (N2),[2]; [M+Na]+,290.41 Å²
CC/C=C\C/C=C\C/C=C\C/C=C\C/C=C\C/C=C\CCC(=O)O[C@H](COC(=O)CCCCCC/C=C\C/C=C\C/C=C\CCCCC)COP(=O)(O)OCCN [PE(42:09)],collision cross section (N2),[2]; [M+Na]+,288.64 Å²
CCCC/C=C\CCCCCCCC(=O)O[C@H](COCCCCCCCCCCCCCCCCCC)COP(=O)(O)OCCN [PE(o32:01)],collision cross section (N2),[2]; [M+2Na-H]+,268.35 Å²
CCCCC/C=C\C/C=C\CCCCCCCC(=O)O[C@H](COCCCCCCCCCCCCCCCC)COP(=O)(O)OCCN [PE(o34:02)],collision cross section (N2),[2]; [M+2Na-H]+,273.55 Å²
same,collision cross section (N2),[2]; [M+Na]+,273.65 Å²
CCCCC/C=C\C/C=C\C/C=C\CCCCC(=O)O[C@H](COCCCCCCCCCCCCCCCCCC)COP(=O)(O)OCCN [PE(o36:03)],collision cross section (N2),[2]; [M+2Na-H]+,279.47 Å²
same,collision cross section (N2),[2]; [M+H]+,272.47 Å²
same,collision cross section (N2),[2]; [M+Na]+,277.92 Å²
CCCCC/C=C\C/C=C\C/C=C\C/C=C\CCCC(=O)O[C@H](COCCCCCCCCCCCCCCCC)COP(=O)(O)OCCN [PE(o36:04)],collision cross section (N2),[2]; [M+2Na-H]+,278.13 Å²
CCCCC/C=C\C/C=C\C/C=C\C/C=C\C/C=C\CCC(=O)O[C@H](COCCCCCCCCCCCCCCCC)COP(=O)(O)OCCN [PE(o38:05)],collision cross section (N2),[2]; [M+2Na-H]+,282.48 Å²
CCCCC/C=C\C/C=C\C/C=C\C/C=C\CCCCCC(=O)O[C@H](COCCCCCCCCCCCCCCCCCC)COP(=O)(O)OCCN [PE(o40:04)],collision cross section (N2),[2]; [M+2Na-H]+,293.52 Å²
CCCCCCCC/C=C\CCCCCCCC(=O)O[C@H](COC(=O)CCCCCCCCCCCCCCCCC)COP(=O)(O)OC[C@H](N)C(=O)O [PS(36:01)],collision cross section (N2),[2]; [M+2Na-H]+,287.95 Å²
same,collision cross section (N2),[2]; [M+H]+,283.39 Å²
same,collision cross section (N2),[2]; [M+K]+,287.48 Å²
same,collision cross section (N2),[2]; [M-H]-,282.92 Å²
CCCCC/C=C\C/C=C\C/C=C\C/C=C\CCCCCC(=O)OC[C@H](COP(=O)(O)OC[C@H](N)C(=O)O)OC(=O)CCCCCCCCCCCCC [PS(36:04)],collision cross section (N2),[2]; [M+2Na-H]+,281.53 Å²
CCCCCC/C=C\CCCCCCCC(=O)OC[C@H](COP(=O)(O)OC[C@H](N)C(=O)O)OC(=O)CCCCCCCCC/C=C\CCCCCCCCCC [PS(38:02)],collision cross section (N2),[2]; [M+2Na-H]+,292.46 Å²
same,collision cross section (N2),[2]; [M+H]+,287.73 Å²
same,collision cross section (N2),[2]; [M-H]-,287.56 Å²
CCCCC/C=C\C/C=C\CCCCCCCCCCCC(=O)O[C@H](COC(=O)CCCCCCCCCCCCCCCCC)COP(=O)(O)OC[C@H](N)C(=O)O [PS(40:02)],collision cross section (N2),[2]; [M+2Na-H]+,299.44 Å²
same,collision cross section (N2),[2]; [M+H]+,294.02 Å²
CCCCC/C=C\C/C=C\CCCCCCCCCCCC(=O)O[C@H](COC(=O)CCCCCCC/C=C\CCCCCCCC)COP(=O)(O)OC[C@H](N)C(=O)O [PS(40:03)],collision cross section (N2),[2]; [M+H]+,292.62 Å²
same,collision cross section (N2),[2]; [M+Na]+,296.28 Å²
CCCCC/C=C\C/C=C\C/C=C\C/C=C\CCCCCC(=O)O[C@H](COC(=O)CCCCCCC/C=C\C/C=C\CCCCC)COP(=O)(O)OC[C@H](N)C(=O)O [PS(40:06)],collision cross section (N2),[2]; [M+2Na-H]+,295.61 Å²
same,collision cross section (N2),[2]; [M+H]+,287.73 Å²
same,collision cross section (N2),[2]; [M+K]+,292.76 Å²
same,collision cross section (N2),[2]; [M+Na]+,291.7 Å²
same,collision cross section (N2),[2]; [M-H]-,289.09 Å²
CC/C=C\C/C=C\C/C=C\CCCCCCCC(=O)O[C@H](COC(=O)CCCCC/C=C\C/C=C\C/C=C\C/C=C\CCCCC)COP(=O)(O)OC[C@H](N)C(=O)O [PS(40:07)],collision cross section (N2),[2]; [M+2Na-H]+,290.15 Å²
same,collision cross section (N2),[2]; [M+Na]+,289.65 Å²
same,collision cross section (N2),[2]; [M-H]-,287.37 Å²
CC/C=C\C/C=C\C/C=C\C/C=C\C/C=C\CCCC(=O)O[C@H](COC(=O)CCCCCC/C=C\C/C=C\C/C=C\CCCCC)COP(=O)(O)OC[C@H](N)C(=O)O [PS(40:08)],collision cross section (N2),[2]; [M+2Na-H]+,287.97 Å²
CC/C=C\C/C=C\C/C=C\C/C=C\C/C=C\CCCC(=O)OC[C@H](COP(=O)(O)OC[C@H](N)C(=O)O)OC(=O)CCCCCCCCCCCCCCCCCCCC [PS(41:05)],collision cross section (N2),[2]; [M+2Na-H]+,298.43 Å²
CCCCCCCCCC/C=C\CCCCCCCCCC(=O)O[C@H](COC(=O)CCCCCCCCCCCCCCCCCCC)COP(=O)(O)OC[C@H](N)C(=O)O [PS(42:01)],collision cross section (N2),[2]; [M+H]+,301.86 Å²
same,collision cross section (N2),[2]; [M+Na]+,303.25 Å²
CC/C=C\C/C=C\C/C=C\C/C=C\C/C=C\C/C=C\CCC(=O)O[C@H](COC(=O)CCCCCCCCC/C=C\CCCCCCCC)COP(=O)(O)OC[C@H](N)C(=O)O [PS(42:07)],collision cross section (N2),[2]; [M+2Na-H]+,296.35 Å²
CCCCC/C=C\C/C=C\C/C=C\C/C=C\CCCCCC(=O)OC[C@H](COP(=O)(O)OC[C@H](N)C(=O)O)OC(=O)CCCCCCCCC/C=C\CCCCCCCCCC [PS(44:05)],collision cross section (N2),[2]; [M+2Na-H]+,306.87 Å²
CC/C=C\C/C=C\C/C=C\C/C=C\C/C=C\C/C=C\CCC(=O)O[C@H](COC(=O)CCCCCCCCC/C=C\CCCCCCCCCC)COP(=O)(O)OC[C@H](N)C(=O)O [PS(44:07)],collision cross section (N2),[2]; [M+2Na-H]+,303.11 Å²
CCCCCCCCCCCCC=CC[C@@H](O)[C@H](COP(=O)([O-])OCC[N+](C)(C)C)NC(=O)CCCCCCCCCCCCCCC [SM(34:01)],collision cross section (N2),[2]; [M+Cl]-,284.26 Å²
same,collision cross section (N2),[2]; [M+HCOO]-,284.66 Å²
same,collision cross section (N2),[2]; [M+H]+,280.06 Å²
same,collision cross section (N2),[2]; [M+Na]+,278.77 Å²
CCCCCCCCCCCCC=CC[C@@H](O)[C@H](COP(=O)([O-])OCC[N+](C)(C)C)NC(=O)CCCCCCCCCCCCCCCCC [SM(36:01)],collision cross section (N2),[2]; [M+Cl]-,288.69 Å²
same,collision cross section (N2),[2]; [M+HCOO]-,290.34 Å²
same,collision cross section (N2),[2]; [M+H]+,286.24 Å²
same,collision cross section (N2),[2]; [M+K]+,288.38 Å²
same,collision cross section (N2),[2]; [M+Na-H2O]+,280.09 Å²
same,collision cross section (N2),[2]; [M+Na]+,285.86 Å²
CCCCCCCCCCCCC=CC[C@@H](O)[C@H](COP(=O)([O-])OCC[N+](C)(C)C)NC(=O)CC=CCCCCCCCCCCCCCCCCCC [SM(40:02)],collision cross section (N2),[2]; [M+Cl]-,299.55 Å²
same,collision cross section (N2),[2]; [M+HCOO]-,299.75 Å²
same,collision cross section (N2),[2]; [M+H]+,295.66 Å²
same,collision cross section (N2),[2]; [M+Na]+,292.53 Å²
CCCCCCCCCCCCCCCCCCCCCCCC(=O)N[C@@H](COP(=O)([O-])OCC[N+](C)(C)C)[C@H](O)CCCCCCCCCCCCCCC [SM(42:00)],collision cross section (N2),[2]; [M+HCOO]-,308.73 Å²
same,collision cross section (N2),[2]; [M+H]+,305.33 Å²
CCCCCCCCCCCCC=CC[C@@H](O)[C@H](COP(=O)([O-])OCC[N+](C)(C)C)NC(=O)CC=CCCCCCCCCCCCCCCCCCCCCCC [SM(44:02)],collision cross section (N2),[2]; [M+H]+,307.52 Å²
same,collision cross section (N2),[2]; [M+Na]+,306.5 Å²
